Our source for the GI50 and TGI values is PubChem BioAssay (NCI).

Structures are written as SMILES.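 Each compound was tested at five concentrations against cells in 96-well plates for 48 hours. GI50: concentration for 50% inhibition of growth. The concentration for full growth arrest is given as TGI.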

Common to all, as to assay: DTP human tumour cell line panel, 48 h
For experiment [1], the system named is DLD-1 colon.
For experiment [2], the system named is DMS 114 small cell lung.
Experiment [3] relates to DMS 273 small cell lung.
In experiment [4] the test system is HOP-18 NSCLC.
For experiment [5], the system named is KM20L2 colon.
Experiment [6] relates to LXFL 529 NSCLC.
Experiment [7] concerns M19-MEL melanoma.
Experiment [8] concerns RXF-631 renal.
Experiment [9] concerns XF 498 CNS.
The test system of experiment [10] is SNB-78 CNS.

Usually GI50 stands for the concentration that inhibits growth by half. Broadly, the TGI is the concentration at which net growth stops. Turning to `O=C(NC(=O)c1ccccc1[N+](=O)[O-])Nc1ccc(Oc2ncc(Br)cn2)c(Cl)c1`, the GI50 was < 0.0201 µM in experiment [1]; 0.00331 µM in [2]; > 100 µM in experiment [4]; < 0.0224 µM in experiment [6]; < 0.0229 µM in experiment [7]; < 0.0251 µM in [9]. The TGI was 0.0212 µM in experiment [3], > 100 µM in experiment [4], 0.059 µM in experiment [5] and 0.056 µM in [8].
On to `CCC(C(=O)O)c1ccc(OC)cc1` (configuration not stated), for which the concentration for total growth inhibition (TGI) in experiment [1], in experiment [2], in [3], in experiment [5], in [6] and in experiment [7] was > 100 µM in each case. For the same compound, the total growth inhibition concentration (TGI) in [8], in experiment [10] and in experiment [9] was > 100 µM in each case.
Regarding `CC(C)CCS(=O)(=O)OCCCCOS(=O)(=O)CCC(C)C`, the TGI in experiment [1], in experiment [2], in experiment [3], in [5], in experiment [6] and in [7] was > 100 µM in each case. In addition, the TGI in experiment [10] is > 100 µM.
As for `CCCCC#C[I+]c1ccccc1`, the TGI in experiment [1] came out at 38.2 µM; in [3], 40.9 µM; in experiment [4] it was 27.6 µM; in experiment [5] it was 35.9 µM; in experiment [6] it was 24.6 µM; in [7] it was 30.1 µM. The TGI worked out at 35.6 µM in experiment [8], 60.3 µM in experiment [10] and 28.6 µM in experiment [9].
As to `Cc1c(O)c(O)cc[n+]1C1OC(CO)C(O)C1O` (configuration not stated), the concentration for total growth inhibition (TGI) in experiment [1], in [3], in experiment [4], in experiment [5], in experiment [6] and in [7] was > 100 µM throughout. In experiment [10], the TGI is > 100 µM.
